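1) Cells in 96-well plates. 2) Compound, 48 h, 5 concentrations. 3) Linear interpolation between surrounding doses. 4) Unreached endpoint = highest concentration. At the GI50, growth is halved.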 The source made the active and inactive calls. Rule as the data show it: active = GI50 up to about 1.1 µM and inactive = higher. Residues, ends and D or L forms follow the SMILES beside them. *: point of attachment. Boc = CC(C)(C)OC(=O)*; OBn = c1ccc(CO*)cc1
How the values were obtained:
Assay in all cases: NCI anticancer screen, dose series, 48 h
UO-31 = tested on: UO-31
SN12C = tested on: SN12C
SK-OV-3 = tested on: SK-OV-3
NCI/ADR-RES = tested on: NCI/ADR-RES
OVCAR-8 = tested on: OVCAR-8
MOLT-4 = tested on: MOLT-4
NCI-H23 = tested on: NCI-H23
SF-295 = tested on: SF-295
A498 = tested on: A498
TK-10 = tested on: TK-10
HCC 2998 = tested on: HCC 2998
HL-60 = tested on: HL-60
RPMI-8226 = tested on: RPMI-8226
786-0 = tested on: 786-0
U-251 = tested on: U-251
SNB-75 = tested on: SNB-75
HCT-116 = tested on: HCT-116
EKVX = tested on: EKVX
SNB-19 = tested on: SNB-19
RXF 393 = tested on: RXF 393

Measured: GI50

CC(C)C(NC(=O)C(Cc1ccccc1)NC(=O)OC(C)(C)C)C(=O)NCC(=O)OCc1ccccc1 (stereo not drawn) (Boc-Phe-Val-Gly-OBn; configuration not given here)
inactive: UO-31 21.7 µM | SN12C 18 µM | SK-OV-3 13.4 µM | NCI/ADR-RES > 100 µM | OVCAR-8 19.5 µM | MOLT-4 18.5 µM | NCI-H23 16.8 µM | SF-295 18.6 µM | A498 44.6 µM | TK-10 13 µM | HCC 2998 17.8 µM | HL-60 13.4 µM | RPMI-8226 16.5 µM | 786-0 17.9 µM | U-251 17.6 µM | SNB-75 20.5 µM | HCT-116 23.7 µM | EKVX 20.4 µM | SNB-19 25.6 µM

Cc1ccc(-c2nnc(CCCCCCCCc3nnc(-c4ccc(C)cc4O)n3N)n2N)c(O)c1
inactive: UO-31 > 100 µM | SN12C > 100 µM | SK-OV-3 39.2 µM | NCI/ADR-RES > 100 µM | OVCAR-8 > 100 µM | MOLT-4 33 µM | NCI-H23 > 100 µM | SF-295 77.1 µM | A498 > 100 µM | TK-10 > 100 µM | HCC 2998 > 100 µM | HL-60 > 10 µM | RPMI-8226 > 100 µM | 786-0 85.1 µM | U-251 > 100 µM | SNB-75 33.9 µM | HCT-116 > 100 µM | EKVX > 100 µM | SNB-19 61.8 µM

CC1CC[C@@]2(OC1)OC1C[C@H]3[C@@H]4CCC5CC(O)CC[C@]5(C)[C@H]4C/C(=N\N(C)C)[C@]3(C)C1[C@@H]2C (some centres not stated)
inactive: UO-31 33.5 µM | SN12C 24.8 µM | SK-OV-3 18.7 µM | NCI/ADR-RES 19.5 µM | MOLT-4 24.7 µM | RXF 393 16.3 µM | NCI-H23 20.3 µM | A498 23 µM | TK-10 29.2 µM | HCC 2998 19.1 µM | HL-60 22.2 µM | RPMI-8226 26.9 µM | 786-0 20.3 µM | U-251 31 µM | HCT-116 23.3 µM | SNB-19 30.1 µM

CCOC(=O)c1c(-c2cccc3ccccc23)c(C#N)c(=S)n(C2OC(COC(C)=O)C(OC(C)=O)C(OC(C)=O)C2OC(C)=O)c1C (configuration not stated)
inactive: UO-31 1.32 µM | SN12C > 100 µM | SK-OV-3 > 100 µM | NCI/ADR-RES > 100 µM | OVCAR-8 > 100 µM | MOLT-4 > 100 µM | RXF 393 > 100 µM | NCI-H23 > 100 µM | SF-295 > 100 µM | A498 > 100 µM | TK-10 > 100 µM | HCC 2998 > 100 µM | HL-60 > 100 µM | 786-0 > 100 µM | U-251 > 100 µM | SNB-75 13.7 µM | HCT-116 > 100 µM | SNB-19 > 100 µM

Cc1ccc(NC(S)=Nc2c(C)n(C)n(-c3ccccc3)c2=O)cc1
inactive: UO-31 > 100 µM | SK-OV-3 > 100 µM | NCI/ADR-RES > 100 µM | OVCAR-8 > 100 µM | MOLT-4 87.9 µM | RXF 393 > 100 µM | NCI-H23 > 100 µM | SF-295 > 100 µM | A498 > 100 µM | TK-10 > 100 µM | HCC 2998 > 100 µM | HL-60 32.2 µM | RPMI-8226 > 100 µM | 786-0 > 100 µM | U-251 > 100 µM | SNB-75 > 100 µM | HCT-116 > 100 µM | EKVX > 100 µM | SNB-19 > 100 µM

CC(=O)c1sc(Nc2ccc(Cl)c(Cl)c2)nc1C
inactive: UO-31 > 100 µM | SN12C > 100 µM | SK-OV-3 > 100 µM | NCI/ADR-RES > 100 µM | OVCAR-8 > 100 µM | MOLT-4 14.8 µM | RXF 393 55.3 µM | NCI-H23 > 100 µM | SF-295 35.1 µM | A498 32.4 µM | TK-10 > 100 µM | HCC 2998 > 100 µM | RPMI-8226 64.4 µM | 786-0 > 100 µM | U-251 > 100 µM | SNB-75 54.1 µM | HCT-116 > 100 µM | EKVX 5.64 µM | SNB-19 > 100 µM

CN(C)Cc1cc(/N=N/c2ccc(Cl)c(Cl)c2)ccc1O
inactive: UO-31 2.49 µM | SN12C 14.7 µM | NCI/ADR-RES 7.46 µM | OVCAR-8 12.9 µM | MOLT-4 6.21 µM | RXF 393 1.48 µM | NCI-H23 13.6 µM | SF-295 17.8 µM | A498 11.1 µM | TK-10 10.9 µM | HCC 2998 12.1 µM | HL-60 2.52 µM | RPMI-8226 14.3 µM | 786-0 11.5 µM | U-251 11.5 µM | SNB-75 7.13 µM | HCT-116 14.4 µM | EKVX 12.6 µM | SNB-19 13.6 µM

CCOc1ccc2c(c1)NC(=O)C(C1OC(c3ccccc3)=CC1=O)S2 (configuration not stated)
inactive: UO-31 29.3 µM | SN12C 26.7 µM | SK-OV-3 16.1 µM | NCI/ADR-RES 24.9 µM | OVCAR-8 22.5 µM | RXF 393 19.7 µM | NCI-H23 28.2 µM | SF-295 27 µM | A498 > 100 µM | TK-10 43.7 µM | HCC 2998 14.4 µM | HL-60 44.8 µM | RPMI-8226 12 µM | 786-0 33.3 µM | U-251 19.7 µM | HCT-116 35.6 µM | EKVX 25.1 µM | SNB-19 59.8 µM

From ChEMBL document CHEMBL1201862, “PubChem BioAssay data set” (2004)
